Twelve molecules from ChEMBL document CHEMBL1201862, “PubChem BioAssay data set” (2004) can be followed below.

Test systems include HCC 2998; HCT-15; MCF7; A498; SR; SW-620; MDA-N; HL-60; DU-145; NCI-H460; NCI-H522; NCI-H226; HCT-116; PC-3; SK-MEL-2; OVCAR-5; SNB-78; ACHN; SK-MEL-28; NCI/ADR-RES.
Common to all, as to assay: NCI-60 cell line screen, 48 h

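In this assay, cells in 96-well plates receive the compound at five concentrations for 48 hours. Endpoints are linearly interpolated between the surrounding concentrations. Here, GI50 denotes the concentration required for 50% inhibition of growth.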 Activity calls are given as the source filed them. Cut-off read from the data, not from the text of the source: active = GI50 up to about 1.1 µM and inactive = higher. Where only a bound is given, the exact number is not on record here.

Consider `COC1/C=C/C=C(/C)Cc2cc(O)c(Cl)c(c2)N(C)C(=O)CC(OC(=O)C(C)C)C2(C)OC2C(C)C2CC1(O)NC(=O)O2` (centres undefined), for which the GI50 is < 0.01 µM (active) with HCC 2998; below 0.01 µM in the test with HCT-15; < 0.01 µM (active) in the test with MCF7; < 0.01 µM (active) with A498; < 0.01 µM (active) in the test on SR; < 0.01 µM (active) in the test with SW-620. The GI50 in the test on MDA-N was < 0.01 µM (active); in the test on HL-60, < 0.01 µM (active); with DU-145 it was < 0.01 µM (active); with NCI-H460 it was < 0.01 µM (active); in the test with NCI-H522 it was < 0.01 µM (active); with NCI-H226, > 100 µM (inactive). The GI50 with HCT-116 and in the test on PC-3 was < 0.01 µM (active) each time.
Consider `CC(C)N/C(N)=N/C#N`, for which the GI50 in the test on HCC 2998 is > 100 µM (inactive); with HCT-15 it was above 100 µM; with SK-MEL-2 it was > 100 µM (inactive); in the test with OVCAR-5, > 100 µM (inactive); in the test with A498, > 100 µM (inactive); in the test with SNB-78, > 100 µM (inactive). Also, the GI50 in the test with SW-620, in the test on HL-60, in the test with NCI-H460, in the test on NCI-H522, in the test on ACHN and with NCI-H226 was > 100 µM (inactive) in each case. Further, the GI50 with HCT-116 is > 100 µM (inactive).
Consider `COC(=O)N1CC2C3C4CC(C(c5ccccc5)=C4c4ccccc4)C3C21` (centres undefined), for which the GI50 in the test with HCC 2998 is 16.3 µM (inactive); in the test on MCF7, 20 µM (inactive); with SK-MEL-2 it was 19.8 µM (inactive); in the test with OVCAR-5 it was 27.7 µM (inactive); in the test on SR it was 11.1 µM (inactive); in the test with SW-620, 18.1 µM (inactive). Also, the GI50 in the test on MDA-N is 20.4 µM (inactive); in the test with DU-145, 14.7 µM (inactive); with SK-MEL-28, 19.9 µM (inactive); with NCI-H460, 14.5 µM (inactive); with NCI/ADR-RES it was 16.8 µM (inactive); in the test on ACHN, 23.3 µM (inactive). Besides, the figures for the GI50 in the test with NCI-H226, in the test with HCT-116 and in the test on PC-3 were 14 µM (inactive), 11.9 µM (inactive) and 10 µM (inactive), respectively.
As for `O=[N+]([O-])c1cnccc1-n1nnc2ccccc21`, the GI50 in the test with HCC 2998 is 19.7 µM (inactive); with HCT-15 it was 18 µM; in the test on MCF7 it was 13.4 µM (inactive); in the test on SK-MEL-2, 16.5 µM (inactive); with OVCAR-5, 32.1 µM (inactive); in the test on A498, 28.3 µM (inactive). Moreover, the GI50 is 27 µM (inactive) in the test on SNB-78; 24.3 µM (inactive) in the test on SW-620; 16 µM (inactive) in the test on HL-60; 19.9 µM (inactive) with SK-MEL-28; 21.5 µM (inactive) with NCI-H460; 16 µM (inactive) in the test with NCI-H522. The GI50 was 20.2 µM (inactive) with NCI/ADR-RES, 18.9 µM (inactive) in the test with NCI-H226 and 24.4 µM (inactive) in the test with HCT-116.
For `Cc1ccccc1NC(=O)C(=O)C(C1OC(=O)c2ccccc21)[N+](=O)[O-]` (centres undefined), the GI50 with HCC 2998 was > 100 µM (inactive); with HCT-15, above 100 µM; with SK-MEL-2, > 100 µM (inactive); in the test with OVCAR-5, > 100 µM (inactive); in the test with A498, > 100 µM (inactive); in the test on SR, > 100 µM (inactive). Besides, the GI50 was > 100 µM (inactive) in the test on SNB-78; > 100 µM (inactive) in the test with SW-620; > 100 µM (inactive) in the test on HL-60; > 100 µM (inactive) in the test with SK-MEL-28; > 100 µM (inactive) with NCI-H460; 56.9 µM (inactive) in the test on NCI-H522. Further, the GI50 in the test with ACHN, in the test with NCI-H226 and in the test on HCT-116 was > 100 µM (inactive) in each case.
In the case of `BrC1=CN2C[n+]3cc(Br)c4ccccc4c3N=C2c2ccccc21`, the GI50 is 58.6 µM with HCT-15; 4.42 µM (inactive) in the test with MCF7; 7.57 µM (inactive) in the test on SK-MEL-2; 17.9 µM (inactive) in the test on OVCAR-5; 24.9 µM (inactive) in the test on A498; 3.18 µM (inactive) in the test with SR. The GI50 with SW-620 was 12.3 µM (inactive); in the test on MDA-N, 6.81 µM (inactive); with HL-60 it was 22.5 µM (inactive); in the test with DU-145 it was 16.6 µM (inactive); in the test on SK-MEL-28, 2.26 µM (inactive); with NCI-H460, 13.8 µM (inactive). Further, the GI50 in the test with NCI-H522 was 12.3 µM (inactive); in the test on NCI/ADR-RES, > 100 µM (inactive); in the test on ACHN, 14.8 µM (inactive); in the test with PC-3, 13.6 µM (inactive).
As to `S=C(NCCCCCCNC(=S)Nc1c2ccccc2nc2ccccc12)Nc1c2ccccc2nc2ccccc12`, the GI50 with HCC 2998 is > 96.2 µM (inactive); with HCT-15 it was 76.4 µM; in the test with MCF7 it was 49 µM (inactive); in the test with SK-MEL-2 it was > 100 µM (inactive); in the test on OVCAR-5 it was > 84.1 µM (inactive); with A498 it was > 91.8 µM (inactive). Also, the GI50 with SNB-78 was > 87.7 µM (inactive); with SW-620, 52.8 µM (inactive); with HL-60, 77.1 µM (inactive); in the test on SK-MEL-28, > 100 µM (inactive); in the test with NCI-H460, 43.1 µM (inactive); in the test with NCI-H522, 64.6 µM (inactive). Moreover, the GI50 with NCI/ADR-RES was > 88.1 µM (inactive); with NCI-H226, 10.8 µM (inactive); in the test with HCT-116 it was 50.6 µM (inactive).
In the case of `O=C(O)C1CCC(=O)N1S(=O)(=O)c1ccccc1` (centres undefined), the GI50 in the test on HCC 2998 was > 100 µM (inactive); with HCT-15, above 100 µM; in the test with MCF7, > 100 µM (inactive); in the test with SK-MEL-2 it was > 100 µM (inactive); with OVCAR-5 it was > 100 µM (inactive); with A498, > 100 µM (inactive). For the same molecule, the GI50 with SNB-78, with SW-620, in the test on HL-60, in the test on SK-MEL-28, with NCI-H460 and with NCI-H522 was > 100 µM (inactive) in each case. Further, the GI50 with NCI/ADR-RES, in the test on NCI-H226 and with HCT-116 was > 100 µM (inactive) throughout.
On to `CO/N=C(\C)c1ccc(Nc2nc3ccccc3c3occc23)cc1`, for which the GI50 in the test on HCC 2998 is 16.1 µM (inactive); with HCT-15, 15.1 µM; in the test on MCF7, 13.8 µM (inactive); in the test on SK-MEL-2, 18 µM (inactive); in the test on OVCAR-5 it was 16.3 µM (inactive); in the test on A498, 16 µM (inactive). Moreover, the GI50 in the test with SR was 24.7 µM (inactive); in the test with MDA-N, 14.6 µM (inactive); with HL-60, 26.5 µM (inactive); with DU-145, 15.5 µM (inactive); in the test with NCI-H460, 15.6 µM (inactive); in the test on NCI-H522, 10.8 µM (inactive). Further, the GI50 is 15.6 µM (inactive) in the test with NCI/ADR-RES; 14 µM (inactive) in the test on ACHN; 8.18 µM (inactive) with NCI-H226; 14.3 µM (inactive) in the test with HCT-116; 16.2 µM (inactive) in the test on PC-3.
For the molecule `CSCSCC(N)CO.Cc1[nH]c(=O)[nH]c(=O)c1/C=C/C(=O)O`, the GI50 with HCC 2998 was > 625 µM (inactive); in the test on HCT-15 it was above 625 µM; in the test on MCF7, > 625 µM (inactive); in the test on SK-MEL-2, > 625 µM (inactive); with OVCAR-5, > 625 µM (inactive); in the test with A498, > 625 µM (inactive). The GI50 with SNB-78 was 618 µM (inactive); in the test with SW-620 it was > 625 µM (inactive); with HL-60, > 625 µM (inactive); with SK-MEL-28, > 625 µM (inactive); in the test with NCI-H460 it was > 625 µM (inactive); in the test on NCI-H522 it was > 625 µM (inactive). In addition, the GI50 with NCI/ADR-RES, in the test with NCI-H226 and in the test with HCT-116 was > 625 µM (inactive) each time.
Regarding `C=CC1(NC(=O)c2ccccc2)CCC(C(C)(C)C)CC1` (centres undefined), the GI50 is 36.7 µM (inactive) in the test on HCC 2998; 32.4 µM with HCT-15; 30.8 µM (inactive) with MCF7; 25.2 µM (inactive) with SK-MEL-2; 28.1 µM (inactive) in the test on OVCAR-5; 48.2 µM (inactive) in the test on A498. For the same molecule, the GI50 is 39.1 µM (inactive) with SNB-78; 35.3 µM (inactive) with SW-620; 14.4 µM (inactive) in the test on HL-60; 42.6 µM (inactive) in the test with SK-MEL-28; 31.1 µM (inactive) in the test on NCI-H460; 30.8 µM (inactive) with NCI-H522. The GI50 with NCI/ADR-RES is 19.6 µM (inactive); in the test on NCI-H226 it was 27.8 µM (inactive); in the test with HCT-116, 22.8 µM (inactive).
As to `COc1ccccc1-c1cc(O)c2c(C)ccnc2n1`, the GI50 in the test with HCC 2998 is 64.9 µM (inactive); in the test on HCT-15, 28.4 µM; with MCF7, 26.5 µM (inactive); in the test on SK-MEL-2, 26.7 µM (inactive); in the test on OVCAR-5, 52.4 µM (inactive); in the test with A498, 27.6 µM (inactive). For the same molecule, the GI50 with SR was 14.2 µM (inactive); in the test with SW-620, 6.1 µM (inactive); with DU-145, 41.2 µM (inactive); in the test with SK-MEL-28, 84.3 µM (inactive); in the test with NCI-H522, 15.8 µM (inactive); in the test on NCI/ADR-RES it was 19.3 µM (inactive). For the same molecule, the results for the GI50 with ACHN and with NCI-H226 were 28.4 µM (inactive) and 15.8 µM (inactive), respectively.
